Patent US8759537B2, “3H-imidazo [4, 5-C] pyridine-6-carboxamides as anti-inflammatory agents” (Boehringer Ingelheim International GmbH, priority 2010, dated 2014)
Read-outs that look alike come from different tables or passages of the source.

Target: mPGES-1 (Homo sapiens (Human), UniProt O14684)
Experiment: A549 cell-based assay (PGE2 formation, IL-1β stimulated, 50% human serum)
Conditions: A549 cells
Method: Although the enzymatic assay is a high throughput assay the disadvantage is that it uses a recombinant protein which is not in its natural environment. Accordingly a cellular assay was established in which a cell line of human origin (A549) expressing the mPGES-1 protein was used. In addition in order to mimic the situation in humans in which compounds can be bound to plasma proteins 50% human serum is added in the assay.
Cells were detached using Trypsin-EDTA. A549 cells were seeded in a 384-well collagene plate at a density of 7000 cells/well (50 μl) in F-12 medium containing 1% Penicillin-Streptomycin and 50% human serum. The cells were allowed to attach for 3-4 h. […] The total volume is 100 μl.
Concentrations of PGE2 in the cell free medium (10 μl) were measured using a commercially available HTRF kit from Cisbio (as described above). The PGE2 formation in the absence of test compound was taken as 100%.
IC50 values were derived from at 6-8 point titrations using conventional software.

[1] = IL-1β 5 ng/ml, read-out: mPGES-1 inhibitory effect in the cell assay, IC50

mPGES-1, sequence (O14684 whole entry): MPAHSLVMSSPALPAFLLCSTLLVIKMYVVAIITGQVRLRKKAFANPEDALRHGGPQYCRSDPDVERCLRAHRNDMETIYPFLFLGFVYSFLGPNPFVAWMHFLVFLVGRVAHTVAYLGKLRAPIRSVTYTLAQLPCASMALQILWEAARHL

| IC50 [1] [nM] | IC50 (Table C comparison of selected benzimidazoles, read-out: Cell IC50) [nM] | SMILES |
| --- | --- | --- |
| 1 | – | CC(C)C(=O)NCc1ccc(Cl)c(Nc2nc3cc(C(=O)Nc4ccc(F)c(Cl)c4)c(OCC(F)F)cc3n2C)c1Cl [Example 151] |
| 2 | – | Cn1c(Nc2c(Cl)ccc(CNC(=O)C3CC3)c2Cl)nc2cc(C(=O)Nc3ccc(F)c(Cl)c3)c(OCC(F)F)cc21 [Example 148] |
| < 1 | – | Cn1c(Nc2c(Cl)ccc(CNC(=O)C3CCCC3)c2Cl)nc2cc(C(=O)Nc3ccc(F)c(Cl)c3)c(OCC(F)F)cc21 [Example 160] |
| 49 | – | Cc1nc(C)c(C(=O)NCc2ccc(Cl)c(Nc3nc4cc(C(=O)Nc5ccc(F)c(Cl)c5)c(OCC(F)F)cc4n3C)c2Cl)s1 [Example 138] |
| 4 | – | CC(O)C(=O)NCc1ccc(Cl)c(Nc2nc3cc(C(=O)Nc4ccc(F)c(Cl)c4)c(OCC(F)F)cc3n2C)c1Cl (stereo not shown) [Example 147] |
| 2 | – | Cn1c(Nc2c(Cl)ccc(CNC(=O)CC3CC3)c2Cl)nc2cc(C(=O)Nc3ccc(F)c(Cl)c3)c(OCC(F)F)cc21 [Example 144] |
| < 1 | – | CC(C(=O)NCc1ccc(Cl)c(Nc2nc3cc(C(=O)Nc4ccc(F)c(Cl)c4)c(OCC(F)F)cc3n2C)c1Cl)C(F)(F)F (stereo not shown) [Example 141] |
| < 1 | – | Cn1c(Nc2c(Cl)ccc(CNC(=O)c3sccc3Cl)c2Cl)nc2cc(C(=O)Nc3ccc(F)c(Cl)c3)c(OCC(F)F)cc21 [Example 168] |
| < 1 | – | Cn1c(Nc2c(Cl)ccc(CNC(=O)C3(C(F)(F)F)CCCC3)c2Cl)nc2cc(C(=O)Nc3ccc(F)c(Cl)c3)c(OCC(F)F)cc21 [Example 165] |
| 10 | – | Cn1ccnc1C(=O)NCc1ccc(Cl)c(Nc2nc3cc(C(=O)Nc4ccc(F)c(Cl)c4)c(OCC(F)F)cc3n2C)c1Cl [Example 156] |
| 2 | – | Cn1c(Nc2c(Cl)ccc(CNC(=O)C(O)C(F)(F)F)c2Cl)nc2cc(C(=O)Nc3ccc(F)c(Cl)c3)c(OCC(F)F)cc21 (stereo not shown) [Example 161] |
| 1 | – | Cn1c(Nc2c(Cl)ccc(CNC(=O)C(F)F)c2Cl)nc2cc(C(=O)Nc3ccc(F)c(Cl)c3)c(OCC(F)F)cc21 [Example 159] |
| 2 | – | Cn1c(Nc2c(Cl)ccc(CNC(=O)C3CCC3)c2Cl)nc2cc(C(=O)Nc3ccc(F)c(Cl)c3)c(OCC(F)F)cc21 [Example 172] |
| – | > 200 | Cn1c(Nc2cc(CNC(=O)C(C)(C)C)ccc2Cl)nc2cc(C(=O)NCC3CC3)c(OCC(F)F)cc21 [[drawing 49] of PCT/EP2010/052799, reference compound] |
| 4 | – | Cn1c(Nc2c(Cl)ccc(CNC(=O)C3CCCO3)c2Cl)nc2cc(C(=O)Nc3ccc(F)c(Cl)c3)c(OCC(F)F)cc21 (stereo not shown) [Example 137] |
| 2 | – | Cn1c(Nc2c(Cl)ccc(CNC(=O)C(C)(C)CO)c2Cl)nc2cc(C(=O)Nc3ccc(F)c(Cl)c3)c(OCC(F)F)cc21 [Example 155] |
| 15 | – | Cn1c(Nc2c(Cl)ccc(CNC(=O)C(N)C(F)(F)F)c2Cl)nc2cc(C(=O)Nc3ccc(F)c(Cl)c3)c(OCC(F)F)cc21 (stereo not shown) [Example 164] |
| < 1 | – | Cn1c(Nc2c(Cl)ccc(CNC(=O)C3(C)CCCO3)c2Cl)nc2cc(C(=O)Nc3ccc(F)c(Cl)c3)c(OCC(F)F)cc21 (stereo not shown) [Example 170] |
| 3 | – | Cn1c(Nc2c(Cl)ccc(CNC(=O)C3CC3(F)F)c2Cl)nc2cc(C(=O)Nc3ccc(F)c(Cl)c3)c(OCC(F)F)cc21 (stereo not shown) [Example 153] |
| 7 | – | Cn1c(Nc2c(Cl)ccc(CNC(=O)c3ccno3)c2Cl)nc2cc(C(=O)Nc3ccc(F)c(Cl)c3)c(OCC(F)F)cc21 [Example 166] |
| 36 | – | Cn1c(Nc2c(Cl)ccc(CNC(=O)CC#N)c2Cl)nc2cc(C(=O)Nc3ccc(F)c(Cl)c3)c(OCC(F)F)cc21 [Example 154] |
| < 1 | – | Cn1c(Nc2c(Cl)ccc(CNC(=O)C(C)(F)F)c2Cl)nc2cc(C(=O)Nc3ccc(F)c(Cl)c3)c(OCC(F)F)cc21 [Example 162] |
| < 1 | – | Cn1c(Nc2c(Cl)ccc(CNC(=O)C(C)(N)C(F)(F)F)c2Cl)nc2cc(C(=O)Nc3ccc(F)c(Cl)c3)c(OCC(F)F)cc21 (stereo not shown) [Example 152] |
| 27 | – | Cn1c(Nc2c(Cl)ccc(CNC(=O)CO)c2Cl)nc2cc(C(=O)Nc3ccc(F)c(Cl)c3)c(OCC(F)F)cc21 [Example 139] |

Second part, the compound before the results:

| SMILES | IC50 [1] [nM] | IC50 (Table C comparison of selected benzimidazoles, read-out: Cell IC50) [nM] |
| --- | --- | --- |
| Cn1c(Nc2c(Cl)ccc(CNC(=O)C(C)(N)C(F)(F)F)c2Cl)nc2cc(C(=O)NCC(F)(F)F)c(OCC(F)F)cc21 (stereo not shown) [Example 98] | 2 | – |
| Cn1c(Nc2c(Cl)ccc(CNC(=O)C(C)(C)C)c2Cl)nc2cc(C(=O)Nc3cccc(C#N)c3)c(OCC(F)F)cc21 [Example 28] | 1 | – |
| CC(C)(C)C(=O)NCc1ccc(Cl)c(Nc2nc3c(F)c(OCC(F)(F)F)c(C(=O)N[C@H]4CC[C@H](C(F)(F)F)CC4)cc3[nH]2)c1Cl [Example 79] | 1 | – |
| Cn1c(Nc2c(Cl)ccc(CNC(=O)C3(C)CC3)c2Cl)nc2cc(C(=O)Nc3ccc(F)c(Cl)c3)c(OCC(F)F)cc21 [Example 133] | 1 | – |
| Cn1c(Nc2c(Cl)ccc(CNC(=O)C3CCC3)c2Cl)nc2cc(C(=O)NCC(F)(F)F)c(OCC(F)F)cc21 [Example 91] | 10 | – |
| COCC(=O)NCc1ccc(Cl)c(Nc2nc3cc(C(=O)NCC(F)(F)F)c(OCC(F)F)cc3n2C)c1Cl [Example 101] | 11 | – |
| Cn1c(Nc2c(Cl)ccc(CNC(=O)CC(F)(F)F)c2Cl)nc2cc(C(=O)Nc3ccc(F)c(Cl)c3)c(OCC(F)F)cc21 [Example 131] | 1 | – |
| Cn1c(Nc2c(Cl)ccc(CNC(=O)CC#N)c2Cl)nc2cc(C(=O)NCC(F)(F)F)c(OCC(F)F)cc21 [Example 112] | 19 | – |
| Cn1c(Nc2c(Cl)ccc(CNC(=O)CC(F)(F)F)c2Cl)nc2cc(C(=O)NCC(F)(F)F)c(OCC(F)F)cc21 [Example 128] | 26 | – |
| Cn1c(Nc2c(Cl)ccc(CNC(=O)CC3CC3)c2Cl)nc2cc(C(=O)NCC(F)(F)F)c(OCC(F)F)cc21 [Example 88] | 68 | – |
| Cn1c(Nc2c(Cl)ccc(CNC(=O)C3CC(F)(F)C3)c2Cl)nc2cc(C(=O)NCC(F)(F)F)c(OCC(F)F)cc21 [Example 102] | 15 | – |
| CC(C)(C)C(=O)NCc1ccc(F)c(Nc2nc3cc(C(=O)Nc4ccc(Br)cc4)c(OCC(F)F)cc3n2C2CC2)c1F [Example 11] | 4 | – |
| Cn1c(Nc2c(Cl)ccc(CNC(=O)C3CC3)c2Cl)nc2cc(C(=O)NCC(F)(F)F)c(OCC(F)F)cc21 [Example 100] | 52 | – |
| C[C@H](O)C(=O)NCc1ccc(Cl)c(Nc2nc3cc(C(=O)NCC(F)(F)F)c(OCC(F)F)cc3n2C)c1Cl [Example 109] | 57 | – |
| Cn1c(Nc2c(Cl)ccc(CNC(=O)c3cc(C(F)(F)F)n[nH]3)c2Cl)nc2cc(C(=O)Nc3ccc(F)c(Cl)c3)c(OCC(F)F)cc21 [Example 136] | 17 | – |
| Cn1c(Nc2c(Cl)ccc(CNC(=O)C3CCCO3)c2Cl)nc2cc(C(=O)NCC(F)(F)F)c(OCC(F)F)cc21 (stereo not shown) [Example 90] | 36 | – |
| Cn1c(Nc2c(Cl)ccc(CNC(=O)C(C)(C)F)c2Cl)nc2cc(C(=O)Nc3ccc(F)c(Cl)c3)c(OCC(F)F)cc21 [Example 84, N-(3-Chloro-4-fluoro-phenyl)-2-{2,6-dichloro-3-[(2-fluoro-2-methyl-propionylamino)-methyl]-phenylamino}-6-(2,2-difluoroethoxy)-1-methyl-1H-benzimidazole-5-carboxylic acid amide] | < 1 | – |
| Cn1c(Nc2c(Cl)ccc(CNC(=O)C3(C)CC3)c2Cl)nc2cc(C(=O)NCC(F)(F)F)c(OCC(F)F)cc21 [Example 103] | 18 | – |
| COC(C)(C)C(=O)NCc1ccc(Cl)c(Nc2nc3cc(C(=O)Nc4ccc(F)c(Cl)c4)c(OCC(F)F)cc3n2C)c1Cl [Example 135] | < 1 | – |
